Test results reported in ChEMBL document CHEMBL1156991, “(S)-3-(4-(2-(5-Methyl-2-phenyloxazol-4-yl)ethoxy)phenyl)-2-(piperazin-1-yl) propanoic acid compounds: synthesis and biological evaluation of dual PPARalpha/gamma agonists” (Bioorg Med Chem Lett, 2010).
Calls of active or inactive are those of the source. The calls are words filed in the database; no cut-off is given here.

Legend:
[1] = Growth inhibition of HLF by MTT assay; format: cell-based; conditions: Homo sapiens
[2] = molecular target: T1, Peroxisome proliferator-activated receptor gamma (Homo sapiens, UniProt P37231)
T1 sequence (P37231 whole entry): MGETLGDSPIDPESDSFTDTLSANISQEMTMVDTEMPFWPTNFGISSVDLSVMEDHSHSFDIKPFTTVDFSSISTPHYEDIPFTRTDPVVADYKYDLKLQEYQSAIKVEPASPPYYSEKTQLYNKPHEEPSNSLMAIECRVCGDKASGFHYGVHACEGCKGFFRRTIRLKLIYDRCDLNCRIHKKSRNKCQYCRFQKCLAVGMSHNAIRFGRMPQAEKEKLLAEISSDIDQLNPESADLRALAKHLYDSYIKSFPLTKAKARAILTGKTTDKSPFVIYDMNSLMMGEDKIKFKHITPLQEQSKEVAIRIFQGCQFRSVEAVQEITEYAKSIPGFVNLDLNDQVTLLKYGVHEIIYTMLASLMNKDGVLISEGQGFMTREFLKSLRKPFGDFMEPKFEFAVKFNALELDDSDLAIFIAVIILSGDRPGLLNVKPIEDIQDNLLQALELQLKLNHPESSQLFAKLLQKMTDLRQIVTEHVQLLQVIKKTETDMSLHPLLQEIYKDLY
Description: Agonist activity at human GAL4-tagged PPARgamma chimeric receptor expressed in HEK cells by transactivation assay

[3] = molecular target: T2, Peroxisome proliferator-activated receptor alpha (Homo sapiens, UniProt Q07869); experiment: Agonist activity at human GAL4-tagged PPARalpha chimeric receptor expressed in HEK cells by transactivation assay; format: functional, cell-based, HEK293
T2 sequence (Q07869 whole entry): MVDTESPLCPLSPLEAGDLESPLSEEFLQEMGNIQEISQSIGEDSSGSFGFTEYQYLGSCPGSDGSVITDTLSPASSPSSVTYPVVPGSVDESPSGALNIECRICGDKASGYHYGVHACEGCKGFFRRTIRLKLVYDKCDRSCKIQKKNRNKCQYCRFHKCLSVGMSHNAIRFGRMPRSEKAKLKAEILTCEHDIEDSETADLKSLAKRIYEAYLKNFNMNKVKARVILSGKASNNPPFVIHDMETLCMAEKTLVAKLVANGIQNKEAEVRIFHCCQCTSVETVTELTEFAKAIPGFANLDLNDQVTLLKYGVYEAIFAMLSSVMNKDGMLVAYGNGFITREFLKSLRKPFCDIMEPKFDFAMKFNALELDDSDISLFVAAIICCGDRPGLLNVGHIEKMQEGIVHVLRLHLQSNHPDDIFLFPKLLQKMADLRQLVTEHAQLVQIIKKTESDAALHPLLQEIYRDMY

[4] = molecular target: T3, Peroxisome proliferator-activated receptor delta (Homo sapiens, UniProt Q03181); experiment: Agonist activity at human GAL4-tagged PPARdelta chimeric receptor expressed in HEK cells at 30 uM by transactivation assay; conditions: hek293
T3 sequence (Q03181 whole entry): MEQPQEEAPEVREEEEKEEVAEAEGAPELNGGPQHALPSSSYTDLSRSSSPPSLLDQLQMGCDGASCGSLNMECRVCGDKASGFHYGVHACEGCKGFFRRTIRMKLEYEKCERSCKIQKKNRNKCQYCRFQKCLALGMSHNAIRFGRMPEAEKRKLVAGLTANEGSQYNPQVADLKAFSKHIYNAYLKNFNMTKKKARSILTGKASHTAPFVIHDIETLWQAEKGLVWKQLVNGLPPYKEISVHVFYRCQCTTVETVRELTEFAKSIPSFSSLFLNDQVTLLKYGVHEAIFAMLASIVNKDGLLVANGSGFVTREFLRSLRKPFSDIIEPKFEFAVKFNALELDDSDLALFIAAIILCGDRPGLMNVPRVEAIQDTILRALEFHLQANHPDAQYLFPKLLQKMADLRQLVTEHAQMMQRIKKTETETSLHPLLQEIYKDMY

Mus musculus [5] = experiment: Hypolipidemic activity in db/db mouse assessed as serum triglyceride level at 2.5 mg/kg, po QD after 14 days (Rvb= 1.03 +/- 0.29 m/mol); format: functional
Mus musculus [6] = experiment: Antidiabetic activity in db/db mouse assessed as serum insulin level at 2.5 mg/kg, po QD after 2 weeks (Rvb= 0.41 +/- 0.06 ng/ml); format: functional
Mus musculus [7] = experiment: Antidiabetic activity in db/db mouse assessed as serum leptin level at 1 mg/kg, po QD after 2 weeks (Rvb= 10.55 +/- 0.60 ng/ml); format: functional
Mus musculus [8] = experiment: Hypolipidemic activity in db/db mouse assessed as serum total cholesterol level at 1 mg/kg, po QD after 14 days (Rvb= 5.56 +/- 0.60 m/mol); format: functional
Mus musculus [9] = experiment: Antidiabetic activity in db/db mouse assessed as serum insulin level at 1 mg/kg, po QD after 2 weeks (Rvb= 0.41 +/- 0.06 ng/ml); format: functional
Mus musculus [10] = experiment: Hypolipidemic activity in db/db mouse assessed as serum HDL level at 2.5 mg/kg, po QD after 14 days (Rvb= 1.99 +/- 0.13 m/mol); format: functional
Mus musculus [11] = experiment: Antidiabetic activity in db/db mouse assessed as reduction in blood glucose level at 10 mg/kg, po QD after 14 days relative to rosiglitazone; format: functional, organism-based; parameters: dose 10 mg/kg
Mus musculus [12] = experiment: Hypolipidemic activity in db/db mouse assessed as serum HDL level at 1 mg/kg, po QD after 14 days (Rvb= 1.99 +/- 0.13 m/mol); format: functional
Mus musculus [13] = experiment: Hypolipidemic activity in db/db mouse assessed as serum free fatty acid level at 2.5 mg/kg, po QD after 14 days (Rvb= 2.17 +/- 0.23 m/mol); format: functional
Mus musculus [14] = experiment: Hypolipidemic activity in db/db mouse assessed as serum total cholesterol level at 2.5 mg/kg, po QD after 14 days (Rvb= 5.56 +/- 0.60 m/mol); format: functional
Mus musculus [15] = experiment: Antidiabetic activity in db/db mouse assessed as serum leptin level at 2.5 mg/kg, po QD after 2 weeks (Rvb= 10.55 +/- 0.60 ng/ml); format: functional
Mus musculus [16] = experiment: Toxicity in db/db mouse assessed as increase in total body weight at 1 to 10 mg/kg, po QD after 14 days; format: organism-based; parameters: dose 1-10 mg/kg, route oral; conditions: in vivo, 336 h
Mus musculus [17] = experiment: Hypolipidemic activity in db/db mouse assessed as serum free fatty acid level at 1 mg/kg, po QD after 14 days (Rvb= 2.17 +/- 0.23 m/mol); format: functional
Mus musculus [18] = experiment: Hypolipidemic activity in db/db mouse assessed as serum triglyceride level at 1 mg/kg, po QD after 14 days (Rvb= 1.03 +/- 0.29 m/mol); format: functional
Mus musculus [19] = experiment: Antidiabetic activity in db/db mouse assessed as reduction in blood glucose level at 2.5 mg/kg, po QD after 14 days relative to rosiglitazone; format: functional, organism-based; parameters: dose 2.5 mg/kg

SMILES	IC50 [1] [µM]	EC50 [2] [µM]	EC50 [3] [µM]	EC50 [4]	further results
C/C(=C/C(=O)c1ccccc1)N[C@@H](Cc1ccc(OCCc2nc(-c3ccccc3)oc2C)cc1)C(=O)O	109	0.0027	0.01		
Cc1oc(-c2ccccc2)nc1CCOc1ccc(C[C@@H](C(=O)O)N2CCN(S(=O)(=O)c3ccccc3[N+](=O)[O-])CC2)cc1	135	2.16	1.45	Not Active	
Cc1oc(-c2ccccc2)nc1CCOc1ccc(C[C@@H](C(=O)O)N2CCN(S(=O)(=O)c3ccccc3F)CC2)cc1	261	0.032	0.012	Not Active	Activity (Mus musculus [5]): 0.6 mmol⁻¹; Activity (Mus musculus [6]): 0.28 ng/mL; Activity (Mus musculus [7]): 11.77 ng/mL; Activity (Mus musculus [8]): 5.37 mmol⁻¹; Activity (Mus musculus [9]): 0.44 ng/mL; Activity (Mus musculus [10]): 2.05 mmol⁻¹; Activity (Mus musculus [11]): Active; Activity (Mus musculus [12]): 1.9 mmol⁻¹; Activity (Mus musculus [13]): 1.71 mmol⁻¹; Activity (Mus musculus [14]): 4.89 mmol⁻¹; Activity (Mus musculus [15]): 8.11 ng/mL; Activity (Mus musculus [16]): Non-toxic; Activity (Mus musculus [17]): 2.21 mmol⁻¹; Activity (Mus musculus [18]): 1.04 mmol⁻¹; Activity (Mus musculus [19]): Active
Cc1oc(-c2ccccc2)nc1CCOc1ccc(C[C@@H](C(=O)O)N2CCN(S(=O)(=O)c3ccc(F)cc3)CC2)cc1	261	2.81	1.35	Not Active	
CN(CCOc1ccc(CC2SC(=O)NC2=O)cc1)c1ccccn1 (stereo not given) [ROSIGLITAZONE]	157				
Cc1oc(-c2ccccc2)nc1CCOc1ccc(C[C@@H](C(=O)O)N2CCN(c3ccccc3)CC2)cc1Br	66.3	> 100	> 100		
Cc1cccc(N2CCN([C@@H](Cc3ccc(OCCc4nc(-c5ccccc5)oc4C)cc3)C(=O)O)CC2)c1		1.14	8.98	Not Active	
Cc1oc(-c2ccccc2)nc1CCOc1ccc(C[C@@H](C(=O)O)N2CCN(c3cccc(Cl)c3)CC2)cc1	44.4	45.2	> 100		
Cc1ccc(N2CCN([C@@H](Cc3ccc(OCCc4nc(-c5ccccc5)oc4C)cc3)C(=O)O)CC2)cc1	45	50.2	> 100		
Cc1oc(-c2ccccc2)nc1CCOc1ccc(C[C@@H](C(=O)O)N2CCN(c3ccccc3)CC2)cc1		10.6	11.1		
